Test results reported in US20140243374A1, “Novel Sulfonamides” (The Brigham and Women's Hospital, Inc., priority 2011, published 2014).
Several values for one entry are separate records, joined by “and”; a condition that tells them apart may be missing. Identical values can stand only once.

How the values were obtained:
[1] = biological target: T1, γ-secretase (cleavage of APP, Aβ42) (Homo sapiens, UniProt P49768); experiment: Aβ (1-42) cellular assay (Aβ ELISA, HEK AP-GL-T1 6 cells); format: cell-based; details: for IC50: cellular Aβ42 ELISA, 24 h compound treatment; for inhibition at 1 µM: at 1 μM (concentration in brackets)
T1 construct: endogenous in cells; host or cells: HEK AP-GL-T16 luciferase reporter cells (tetracycline-induced APP substrate)
In short: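 HEK AP-GL-T1 6 cells, with APP processing induced by tetracycline at compound addition 24 h post-plating. After 24 h of treatment, Aβ42 in conditioned medium (protease inhibitors added, frozen) was quantified by fluorometric sandwich ELISA (ex 460/em 560 nm) against an Aβ peptide standard curve.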

[2] = biological target: T2, γ-secretase (Notch cleavage activity) (Homo sapiens, UniProt P49768); experiment: Cleaved Notch1 Sandwich ELISA (SUP-T1 cell line); format: cell-based; details: for IC50: SUP-T1 cells, 16 h; for Notch Elisa/Aβ42: ratio Notch Elisa IC50 to Aβ42 IC50
T2 construct: endogenous in cells; host or cells: SUP-T1 cells
In short: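 SUP-T1 cells endogenously express a truncated Notch fragment that serves as γ-secretase substrate. Cells at 1.0×10^6 cells/mL in RPMI-1640 with 10% FBS were treated 16 h with serially diluted compounds in DMSO. Cleaved Notch intracellular domain was quantified by sandwich ELISA on equal protein amounts.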

[3] = biological target: T3, γ-secretase (cleavage of Notch) (Homo sapiens, UniProt P49768); experiment: Notch cellular assay (luciferase reporter U2OS cells); format: cell-based; details: for IC50: U2OS luciferase reporter cells; for Notch Luc/Aβ42: ratio Notch luciferase IC50 to Aβ42 IC50
T3 construct: endogenous in cells; host or cells: U2OS luciferase reporter cells with Tet-on Notch
Description: This assay was used to determine if the compounds of interest inhibit the cleavage of Notch by γ-secretase in cells. A U2OS cell line in which the luciferase expression is adjusted by active Notch was used in this assay Notch expression is adjusted using Tet-on promoter. Luciferase reporter U2OS cells are plated at 1000 cells/well in 96 well plates in DMEM containing 100 μg/mL hygromycin, 15 μg/mL blasticidin and 1 μg/mL Tetracycline. Compounds were added 24 h after plating and the cells are lysed 6 days after adding compounds. Luciferase expression was performed using Steady-Glo Luciferase Assay System (Promega).

Row | SMILES | IC50 [1] | melting point | IC50 [2] | Notch Elisa/Aβ42 [2] | inhibition at 30 µM ([1]; at 30 μM (concentration in brackets), read-out: Aβ42 % Inh) | IC50 [3] | Notch Luc/Aβ42 [3] | inhibition at 1 µM ([1]; read-out: Aβ42 % Inh)
1 | C[C@H](CO)NC(=O)c1ccc(CN(C2CCCCC2F)S(=O)(=O)c2ccc(Cl)cc2)c(F)c1F (stereo partly drawn) [Example 77, 4-((4-Chloro-N-(2-fluorocyclohexyl)phenylsulfonamido)methyl)-2,3-difluoro-N—((R)-1-hydroxypropan-2-yl)benzamide] | 0.00424 µM and 0.00336 µM | 126 to 128 °C | 1.02 µM | 268 | – | – | – | –
2 | O=C(O)c1ccc(CN(C2CCCCC2Cl)S(=O)(=O)c2ccc(Cl)cc2)cc1 (stereo not shown) [Example 81, 4-((4-Chloro-N-(2-chlorocyclohexyl)phenylsulfonamido)methyl)benzoic acid] | – | 158 to 160 °C | – | – | 0% | – | – | –
3 | CC1CCCCC1N(Cc1ccc(C(=O)NCCO)cc1)S(=O)(=O)c1ccc(Cl)cc1 (stereo not shown) [Example 6, 4-((4-Chloro-N-(2-methylcyclohexyl)phenylsulfonamido)methyl)-N-(2-hydroxyethyl)benzamide] | 0.00083 µM | 105 to 107 °C | 0.13 µM | 157 | – | 0.99 µM | 1192 | –
4 | COC(=O)c1cc(CN(CC2CCOCC2)S(=O)(=O)c2ccc(Cl)cc2)ccc1OC [Example 16, Methyl 5-((4-chloro-N-((tetrahydro-2H-pyran-4-yl)methyl)phenylsulfonamido)-methyl)-2-methoxybenzoate] | – | 118 to 119 °C | – | – | – | – | – | 0%
5 | COC(=O)c1ccc(CN(C2CCCCC2O)S(=O)(=O)c2ccc(Cl)cc2)cc1 (stereo not shown) [Example 25, Methyl 4-((4-chloro-N-(2-hydroxycyclohexyl)phenylsulfonamido)methyl)benzoate] | 0.0178 µM | 162 to 164 °C | – | – | – | – | – | –
6 | O=C(O)c1ccc(CN(C2CCCCC2F)S(=O)(=O)c2ccc(Cl)cc2)c(F)c1F (stereo not shown) [Example 72, 4-((4-Chloro-N-(2-fluorocyclohexyl)phenylsulfonamido)methyl)-2,3-difluorobenzoic acid] | 0.0485 µM | 108 to 109 °C | 3.54 µM | 73 | – | – | – | –
7 | O=C(O)c1ccc(CN(C2CCCCC2O)S(=O)(=O)c2ccc(Cl)cc2)cc1 (stereo not shown) [Example 24, 4-((4-Chloro-N-(2-hydroxycyclohexyl)phenylsulfonamido)methyl)benzoic acid] | – | 218 to 219 °C | – | – | – | – | – | 51%
8 | CC1CCCCC1N(Cc1ccc(C(=O)N[C@@H](C)CO)cc1)S(=O)(=O)c1ccc(Cl)cc1 (stereo partly drawn) [Example 5, 4-((4-Chloro-N-(2-methylcyclohexyl)phenylsulfonamido)methyl)-N—((S)-1-hydroxypropan-2-yl)benzamide] | 0.0011 µM and 0.0018 µM | 95 to 97 °C | 0.16 µM | 110 | – | 2.3 µM | 1586 | –
9 | CC[C@@H](C1CCCC1)N(Cc1ccc(C(=O)O)cc1)S(=O)(=O)c1ccc(Cl)cc1 [Example 20, (S)-4-((4-Chloro-N-(1-cyclopentylpropyl)phenylsulfonamido)methyl)benzoic acid] | 0.05 µM | 67 to 69 °C | – | – | – | 40 µM and 100 µM | 1400 | –
10 | O=C(O)c1ccc(CN(C2CCOCC2)S(=O)(=O)c2ccc(Cl)cc2)cc1 [Example 1, 4-((4-Chloro-N-(tetrahydro-2H-pyran-4-yl)phenylsulfonamido)methyl)benzoic acid] | – | 218 to 219 °C | – | – | – | – | – | 6%
11 | N#Cc1ccc(CN(C2CCCC2)S(=O)(=O)c2ccc(Cl)cc2)c(F)c1 [Example 28, 4-Chloro-N-(4-cyano-2-fluorobenzyl)-N-cyclopentylbenzenesulfonamide] | 0.301 µM | 176 to 177 °C | – | – | – | – | – | –
12 | CC1CCCCC1N(Cc1ccc(C(=O)O)cc1)S(=O)(=O)c1ccc(C(F)(F)F)nc1 (stereo not shown) [Example 32, 4-((N-(2-Methylcyclohexyl)-6-(trifluoromethyl)pyridine-3-sulfonamido)methyl)benzoic acid] | 0.0284 µM | 117 to 119 °C | – | – | – | 4.8 µM | 169 | –
13 | CC[C@@H](C1CCCCC1)N(Cc1ccc(C(=O)O)cc1)S(=O)(=O)c1ccc(Cl)cc1 [Example 15, (S)-4-((4-Chloro-N-(1-cyclohexylpropyl)phenylsulfonamido)methyl)benzoic acid] | 0.028 µM | 147 to 149 °C | – | – | – | 20 µM | 715 | –
14 | O=C(O)c1ccc(CN(C2CCCCC2O)S(=O)(=O)c2ccc(Cl)cc2)c(F)c1F (stereo not shown) [Example 67, 4-((4-Chloro-N-(2-hydroxycyclohexyl)phenylsulfonamido)methyl)-2,3-difluorobenzoic acid] | – | 134 to 136 °C | – | – | – | – | – | 11%
15 | COc1ccc(CN(CC2CCOCC2)S(=O)(=O)c2ccc(Cl)cc2)cc1C(=O)O [Example 17, 5-((4-Chloro-N-((tetrahydro-2H-pyran-4-yl)methyl)phenylsulfonamido)methyl)-2-methoxybenzoic acid] | – | 158 to 159 °C | – | – | – | – | – | 14%
16 | COC(=O)c1ccc(CN([C@H]2CCCC[C@@H]2O)S(=O)(=O)c2ccc(Cl)cc2)cc1 [Example 31, Methyl 4-((4-chloro-N-((1S,2S)-2-hydroxycyclohexyl)phenylsulfonamido)methyl)benzoate] | 0.199 µM | 150 to 152 °C | – | – | – | – | – | –
17 | CC1CCCCC1N(Cc1ccc(C(=O)NC(C)(C)C(=O)O)cc1)S(=O)(=O)c1ccc(Cl)cc1 (stereo not shown) [Example 34, 2-(4-((4-Chloro-N-(2-methylcyclohexyl)phenylsulfonamido)methyl)benzamido)-2-methylpropanoic acid] | 0.135 µM | 121 to 122 °C | – | – | – | 8.09 µM | 60 | –
18 | O=C(O)c1ccc(CN(CC2CCOCC2)S(=O)(=O)c2ccc(Cl)cc2)cc1 [Example 19, 4-((4-Chloro-N-((tetrahydro-2H-pyran-4-yl)methyl)phenylsulfonamido)methyl)-benzoic acid] | – | 188 to 190 °C | – | – | – | – | – | 13%
19 | O=C(O)c1ccc(CN(C2CCCCC2)S(=O)(=O)c2ccc(Cl)cc2)cc1 [Example 45, 4-((4-chloro-N-cyclohexylphenylsulfonamido)methyl)benzoic acid] | 0.216 µM and 0.0474 µM and 0.18 µM | 135 to 137 °C | 35.9 µM | 243 | – | – | – | –
20 | O=S(=O)(c1ccc(Cl)cc1)N(Cc1ccc(OC2CCOCC2)nc1)C1CCOCC1 [Example 13, 4-Chloro-N-(tetrahydro-2H-pyran-4-yl)-N-((6-(tetrahydro-2H-pyran-4-yloxy)-pyridin-3-yl)methyl)benzenesulfonamide] | – | 123 to 125 °C | – | – | – | – | – | 0%
21 | CC1CCCCC1N(Cc1ccc(C(=O)O)cc1)S(=O)(=O)c1ccc(Cl)cc1 (stereo not shown) [Example 3, 4-((4-Chloro-N-(2-methylcyclohexyl)phenylsulfonamido)methyl)benzoic acid] | 0.007 µM and 0.0127 µM and 0.0038 µM | 180 to 182 °C | 0.35 µM | 45 | – | 5 µM and 4.4 µM and 4.3 µM | 585 | –
22 | O=C(O)c1ccc(CN([C@H]2CCCC[C@@H]2O)S(=O)(=O)c2ccc(Cl)cc2)cc1 [Example 30, 4-((4-Chloro-N-((1S,2S)-2-hydroxycyclohexyl)phenylsulfonamido)methyl)benzoic acid] | – | 218 to 219 °C | – | – | – | – | – | 15%
23 | Cc1ccc(S(=O)(=O)N(Cc2ccc(C#N)cc2F)C2CCC2)cc1 [Example 27, N-(4-Cyano-2-fluorobenzyl)-N-cyclobutyl-4-methylbenzenesulfonamide] | – | 146 to 147 °C | – | – | – | – | – | 37%
24 | CC1CCCCC1N(Cc1ccc(C(=O)NC(C)(C)CO)cc1)S(=O)(=O)c1ccc(Cl)cc1 (stereo not shown) [Example 37, 4-((4-Chloro-N-(2-methylcyclohexyl)phenylsulfonamido)methyl)-N-(1-hydroxy-2-methylpropan-2-yl)benzamide] | 0.0209 µM | 116 to 117 °C | – | – | – | 2.54 µM | – | –
25 | CSc1ccc(CN(C2CCOCC2)S(=O)(=O)c2ccc(Cl)cc2)cc1 [Example 10, 4-Chloro-N-(4-(methylthio)benzyl)-N-(tetrahydro-2H-pyran-4-yl)benzene-sulfonamide] | – | 124 to 127 °C | – | – | – | – | – | 0%
26 | O=C(O)c1ccc(CN(C2CCCCC2)S(=O)(=O)c2ccc(F)cc2)cc1 [Example 9, 4-((N-cyclohexyl-4-fluorophenylsulfonamido)methyl)benzoic acid] | – | 218 to 220 °C | – | – | – | – | – | 0%
